Laboratory results published in the supplement of paper PMC4862054.

How the values were obtained:
Settings in all cases: 72 h
[1] = tested on: BT-474
In short: (§1)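 EC50 is the value from a fitted percent-inhibition dose-response curve, censored at the highest concentration, and rows with zero drug sensitivity score were not kept. The underlying assay seeded breast cancer cell lines in 20 µl onto 384-well plates pre-loaded with compound in 5 µl medium for 72 h. Viability was then read by CellTiter-Blue fluorescence at 560/590 nm after 2 h at 37 °C, with each plate normalised to vehicle and a positive kill control.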

[2] = tested on: Hs578T
In short: as §1

[3] = tested on: HCC1599
In short: as §1

[4] = tested on: HCC1143
In short: as §1

[5] = tested on: MDA-MB-436
In short: as §1

[6] = tested on: MDA-MB-231
In short: as §1

[7] = tested on: HCC1937
In short: as §1

[8] = tested on: MDA-MB-468
In short: as §1

[9] = tested on: SK-BR-3
In short: as §1

[10] = tested on: MFM-223
In short: as §1

[11] = tested on: BT-549
In short: as §1

[12] = tested on: CAL-120
In short: as §1

[13] = tested on: DU-4475
In short: as §1

[14] = tested on: CAL-51
In short: as §1

[15] = tested on: HDQ-P1
In short: as §1

[16] = tested on: CAL-85-1
In short: as §1

[17] = tested on: DU-4475; remark: listed apart in the source
Experimental: (§2)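 Drug sensitivity and resistance testing (DSRT) of breast cancer cell lines in 384-well plates, 5 concentrations in 10-fold dilutions over a compound-specific 10,000-fold range. After 72 h, cytotoxicity was read by CellTox Green fluorescence and viability by CellTiter-Glo luminescence (multiplexed), normalised to DMSO and benzethonium chloride controls. EC50 is the inflection point of the fitted dose-response curve (bottom asymptote free, so it can be relative for partial curves) and is censored at the highest tested concentration. Rows with DSS 0 (no meaningful response) were excluded.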

[18] = tested on: BT-474; remark: listed apart in the source
Experimental: as §2

[19] = tested on: Hs578T; remark: listed apart in the source
Experimental: as §2

[20] = tested on: CAL-51; remark: listed apart in the source
Experimental: as §2

[21] = tested on: HCC1143; remark: listed apart in the source
Experimental: as §2

[22] = tested on: MDA-MB-231; remark: listed apart in the source
Experimental: as §2

[23] = tested on: MCF-10A
Experimental: as §2

[24] = tested on: MDA-MB-453
Experimental: as §2

[25] = tested on: HDQ-P1; remark: listed apart in the source
Experimental: as §2

[26] = tested on: CAL-148
Experimental: as §2

[27] = tested on: MFM-223; remark: listed apart in the source
Experimental: as §2

[28] = tested on: BT-549; remark: listed apart in the source
Experimental: as §2

[29] = tested on: CAL-85-1; remark: listed apart in the source
Experimental: as §2

[30] = tested on: CAL-120; remark: listed apart in the source
Experimental: as §2

[31] = tested on: DU-4475; remark: listed apart in the source
In short: (§3)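 A 20 µl suspension of breast cancer cells was placed in 384-well plates that already contained compound at 5 concentrations in 10-fold steps across a compound-specific 10,000-fold range, and the plates were left for 72 h. CellTox Green fluorescence at 485/520 nm gave cell death, and CellTiter-Glo luminescence, read after 10 min at room temperature, gave viability. Each plate was normalised to 0.1 % DMSO and a positive kill control. EC50 was fitted from the curves and censored at the top concentration.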

[32] = tested on: Hs578T; remark: listed apart in the source
In short: as §3

[33] = tested on: HCC1599; remark: listed apart in the source
In short: as §3

[34] = tested on: HCC1143; remark: listed apart in the source
In short: as §3

[35] = tested on: MDA-MB-436; remark: listed apart in the source
In short: as §3

[36] = tested on: MDA-MB-231; remark: listed apart in the source
In short: as §3

[37] = tested on: HCC1937; remark: listed apart in the source
In short: as §3

[38] = tested on: MCF-10A; remark: listed apart in the source
In short: as §3

[39] = tested on: MDA-MB-453; remark: listed apart in the source
In short: as §3

[40] = tested on: SK-BR-3; remark: listed apart in the source
In short: as §3

[41] = tested on: HDQ-P1; remark: listed apart in the source
In short: as §3

[42] = tested on: CAL-148; remark: listed apart in the source
In short: as §3

[43] = tested on: MFM-223; remark: listed apart in the source
In short: as §3

[44] = tested on: BT-549; remark: listed apart in the source
In short: as §3

[45] = tested on: CAL-85-1; remark: listed apart in the source
In short: as §3

[46] = tested on: CAL-120; remark: listed apart in the source
In short: as §3

[47] = tested on: HCC1599; remark: listed apart in the source
Experimental: as §2

[48] = tested on: MDA-MB-436; remark: listed apart in the source
Experimental: as §2

[49] = tested on: MDA-MB-468; remark: listed apart in the source
Experimental: as §2

SMILES: CN[C@@H]1C[C@H]2O[C@@](C)([C@@H]1OC)n1c3ccccc3c3c4c(c5c6ccccc6n2c5c31)C(=O)N[C@H]4O [UCN-01]
- EC50, CellTiter-Blue viability [1]: 846 nM
- EC50, CellTiter-Blue viability [2]: 30.6 nM
- EC50, CellTiter-Blue viability [3]: 98.1 nM
- EC50, CellTiter-Blue viability [4]: 48.5 nM
- EC50, CellTiter-Blue viability [5]: 695 nM
- EC50, CellTiter-Blue viability [6]: 59.2 nM
- EC50, CellTiter-Blue viability [7]: 58 nM
- EC50, CellTiter-Blue viability [8]: 105 nM
- EC50, CellTiter-Blue viability [9]: 80.2 nM
- EC50, CellTiter-Blue viability [10]: 355 nM
- EC50, CellTiter-Blue viability [11]: 111 nM
- EC50, CellTiter-Blue viability [12]: 24.5 nM
- EC50, CellTiter-Blue viability [13]: 212 nM
- EC50, CellTiter-Blue viability [14]: 140 nM
- EC50, CellTiter-Blue viability [15]: 59.7 nM
- EC50, CellTiter-Blue viability [16]: 175 nM
- EC50, CellTox Green [17]: 128 nM
- EC50, CellTox Green [18]: 2470 nM
- EC50, CellTox Green [19]: 266 nM
- EC50, CellTox Green [20]: 63.9 nM
- EC50, CellTox Green [21]: 114 nM
- EC50, CellTox Green [22]: 88.8 nM
- EC50, CellTox Green [23]: 130 nM
- EC50, CellTox Green [24]: 6000 nM
- EC50, CellTox Green [25]: 34.3 nM
- EC50, CellTox Green [26]: 6850 nM
- EC50, CellTox Green [27]: 46.3 nM
- EC50, CellTox Green [28]: 220 nM
- EC50, CellTox Green [29]: 168 nM
- EC50, CellTox Green [30]: 1580 nM
- EC50, CellTiter-Glo [31]: 184 nM
- EC50, CellTiter-Glo [32]: 36.8 nM
- EC50, CellTiter-Glo [33]: 28 nM
- EC50, CellTiter-Glo [34]: 145 nM
- EC50, CellTiter-Glo [35]: 88.1 nM
- EC50, CellTiter-Glo [36]: 34.4 nM
- EC50, CellTiter-Glo [37]: 193 nM
- EC50, CellTiter-Glo [38]: 45.7 nM
- EC50, CellTiter-Glo [39]: 277 nM
- EC50, CellTiter-Glo [40]: 57.6 nM
- EC50, CellTiter-Glo [41]: 217 nM
- EC50, CellTiter-Glo [42]: 1490 nM
- EC50, CellTiter-Glo [43]: 137 nM
- EC50, CellTiter-Glo [44]: 118 nM
- EC50, CellTiter-Glo [45]: 81.3 nM
- EC50, CellTiter-Glo [46]: 43.6 nM

SMILES: CCC1=C[C@@H]2CN(C1)Cc1c([nH]c3ccccc13)[C@@](C(=O)OC)(c1cc3c(cc1OC)N(C)[C@H]1[C@@](O)(C(=O)OC)[C@H](OC(C)=O)[C@]4(CC)C=CCN5CC[C@]31[C@@H]54)C2 [Vinorelbine]
- EC50, CellTiter-Blue viability [1]: 33.5 nM
- EC50, CellTiter-Blue viability [2]: 39.8 nM
- EC50, CellTiter-Blue viability [3]: 176 nM
- EC50, CellTiter-Blue viability [4]: 41.8 nM
- EC50, CellTiter-Blue viability [5]: 72.8 nM
- EC50, CellTiter-Blue viability [6]: 67.6 nM
- EC50, CellTiter-Blue viability [7]: 26.3 nM
- EC50, CellTiter-Blue viability [8]: 33.5 nM
- EC50, CellTiter-Blue viability [9]: 30.9 nM
- EC50, CellTiter-Blue viability [10]: 44.4 nM
- EC50, CellTiter-Blue viability [11]: 37.8 nM
- EC50, CellTiter-Blue viability [12]: 22.5 nM
- EC50, CellTiter-Blue viability [13]: 304 nM
- EC50, CellTiter-Blue viability [14]: 116 nM
- EC50, CellTiter-Blue viability [15]: 74 nM
- EC50, CellTiter-Blue viability [16]: 23.1 nM
- EC50, CellTox Green [18]: 85.9 nM
- EC50, CellTox Green [19]: 95.4 nM
- EC50, CellTox Green [20]: 45.2 nM
- EC50, CellTox Green [47]: 356 nM
- EC50, CellTox Green [48]: 273 nM
- EC50, CellTox Green [22]: 263 nM
- EC50, CellTox Green [23]: 13.7 nM
- EC50, CellTox Green [49]: 3510 nM
- EC50, CellTox Green [26]: 42.5 nM
- EC50, CellTox Green [27]: 5.52 nM
- EC50, CellTox Green [28]: 492 nM
- EC50, CellTox Green [29]: 23.2 nM
- EC50, CellTox Green [30]: 1500 nM
- EC50, CellTiter-Glo [31]: 1510 nM
- EC50, CellTiter-Glo [32]: 69.7 nM
- EC50, CellTiter-Glo [33]: 206 nM
- EC50, CellTiter-Glo [34]: 23.5 nM
- EC50, CellTiter-Glo [35]: 42.9 nM
- EC50, CellTiter-Glo [36]: 119 nM
- EC50, CellTiter-Glo [37]: 29.5 nM
- EC50, CellTiter-Glo [38]: 27.3 nM
- EC50, CellTiter-Glo [39]: 12.6 nM
- EC50, CellTiter-Glo [40]: 3.1 nM
- EC50, CellTiter-Glo [41]: 40.6 nM
- EC50, CellTiter-Glo [42]: 35.7 nM
- EC50, CellTiter-Glo [43]: 76.8 nM
- EC50, CellTiter-Glo [44]: 26.3 nM
- EC50, CellTiter-Glo [45]: 24.5 nM
- EC50, CellTiter-Glo [46]: 24.1 nM
